The source of these data is patent US20080182908A1, “PHARMACEUTICAL COMPOSITIONS COMPRISING MEMANTINE” (priority 2007, published 2008).

SMILES strings stand for the structures. Structures can show the parent of a compound that is named as a salt.

Data set [1] relates to NMDA (N-methyl-D-aspartate) receptor. The note with it: noncompetitive NMDA receptor antagonist; cited from earlier work.
Data set [2] can be described thus: Physicochemical properties of the active ingredient (density, flow, particle size distribution). The note with it: active ingredient used in Example 1. The source says:
The different physicochemical properties of the active ingredient as well as excipients are to be considered, as these properties affect processing and the formulation properties of the compositions. Various physicochemical properties include, but are not limited to, particle size of the active ingredient, density (including bulk density and tapped density), compressibility index, Hausner's ratio, angle of repose, etc. The percentages of particles with different sizes that exist in a total powder, is the particle size distribution. It is represented in certain ways. Particle size is the maximun dimension of a particle, frequently expressed in micrometers. Particle size distributions can be expressed in terms of D10, D50, D90 and D[4,3]. The D10, D50 and D90 represent the 10th, median or the 50th percentile, and the 90th percentile of the particle size distribution, respectively, as measured by volume. That is, the D10, D50, D90 are values of the distribution such that 10%, 50%, and 90% of the particles have a size of this value or less […]. D50 also known as median diameter of particles. It is one of the important parameters representing characteristics of particle of powder. For a sample, if D50=5 μm, it means that 50% of the particles are smaller than 5 μm. Similarly, if D10=5 μm, 10% of the particles are less than or equal to 5 μm and if D90=5 μm, 90% of the particles have sizes less than or equal to 5 μm. D[4,3] is the volume moment mean of the particles or the volume weighted particle size.

For data set [3] the following is noted: cited from earlier work.

Consider `C[C@]12CC3C[C@](C)(C1)C[C@@](N)(C3)C2` [Memantine, 1-amino-3,5-dimethyladamantane], for which, in data set [1], the “Affinity for the receptor” value is on record as “low to moderate affinity” and the Blocking/unblocking kinetics entry is “rapid blocking/unblocking kinetics”.

Regarding `CC12CC3CC(C)(C1)CC(N)(C3)C2` [memantine hydrochloride], in data set [2], the Bulk density was 0.317 g/mL, the Compressibility index is on record as 31.83, the “Hauser's ratio” value is 1.467 and the “Particle size distribution: D(10)” value is on record as 10.744 μm. In data set [2], the “Particle size distribution: D(50)” value was determined as 60.545 μm, the “Particle size distribution: D(90)” value came to 210.482 μm and the Tapped density worked out at 0.465 g/mL. For the same compound, in data set [3], the Solubility in water result was “highly soluble in water”.
